From US20160101093A1, “METHODS FOR THE TREATMENT OF PREMATURE EJACULATION” (priority 2013, published 2016)

Legend:
[1] = test system: patient with premature ejaculation; assay: Randomized blinded study of clinician-administered bupivacaine injection, IELT and PEP recorded (Example 4); assay type: in vivo, human; conditions: 0.25% bupivacaine
Description: A patient with premature ejaculation is 18 years or old and in a monogamous heterosexual relationship for 6 months. A screening/baseline run-in phase will request at least 4 measurements of IELT over a 4-6 week period. For each sexual episode, partner will record PEP, IELT, date and time of sexual encounter; patient will fill out PEP. To qualify for the treatment phase, patients must have a measured IELT of 2 minutes or less in 75% of valuable events. A volume of distribution of 0.4 and 0.8 mL will bathe the dorsal penile nerves as they are located just to the right and left of midline. Diffusion should occur across the midline given that the subcutaneous compartment has a low resistance to fluid migration. Diffusion of the drug solution should occur through Buck's fascia to the dorsal penile nerves. A concentration of bupivacaine (0.25%) is used for local nerve blocks. Doses of administration are of 1 mg of bupivacaine for the 0.4 mL volume and 2 mg for the 0.8 mL group. This is less than 1.5% of the maximum permitted dose. […] Patients will be randomized to one of 4 treatment groups. […] Subsequently, patient will be evaluated for eligibility for “treatment phase”—must have either: (1) IELT of 2 minutes or less in at least 75% or sexual episodes; or (2) IELT of 3 minutes or less in at least 75% of sexual episodes with PEP score indicating accompanying psychosocial or relationship distress. […]

[2] = test system: patient with lifelong premature ejaculation; assay: Patient self-injection of bupivacaine at home, subcutaneous, dorsal penis (contemplated Examples 1 and 2); assay type: in vivo, human; conditions: dorsally within 1 cm proximal to the glans, self-injected
Description: “Prolongation of climax time” means an increase in time (increase in climax baseline time) from which a patient becomes sexually aroused to the time of sexual climax (i.e. orgasm). This is commonly measured as the ‘intravaginal latency time’ and is measured by stopwatch held and activated by the female partner commencing with insertion of male organ into the female, ending at climax of the male. In one aspect, “treating premature ejaculation” means increasing the time between the beginning of sexual arousal of a patient and ejaculation by the patient; and in particular instances, it can mean increasing the time from which sexual intercourse begins to the time of ejaculation. It is contemplated by the present invention, that a patient with lifelong premature ejaculation and relationship stress proceeds to contact their physician. The physician prescribes a teaching injection of 0.2 mL bupivacaine. The administration of bupivacaine is made dorsally just before the glans, e.g., within 1 cm proximal to the glans. The injection is made subcutaneously to the left or right of midline. The injection anesthetizes the dorsal penile nerve. A 30-32 gauge needle is used, and the need is 10 mm or less (e.g., between 4-10 mm, e.g., 4 mm). […] In one aspect the patient sees an improvement in prolonging climax from 45 seconds (prior to treatment) to 4 minutes (following treatment). It is contemplated by the present invention, that a patient with lifelong premature ejaculation and relationship stress proceeds to contact their physician. The physician prescribes a teaching injection of 0.4 mL bupivacaine. The administration of bupivacaine is made dorsally just before the glans, e.g., within 1 cm proximal to the glans. The injection is made subcutaneously to the left or right of midline. The injection anesthetizes the dorsal penile nerve. A 30-32 gauge needle is used, and the need is 7 mm or less (between 4-7 mm). […] In one aspect the patient sees an improvement in prolonging climax from 45 seconds (prior to treatment) to 4 minutes (following treatment).

CCCCN1CCCCC1C(=O)Nc1c(C)cccc1C (centres unmarked) [bupivacaine]
adverse dose-related effects ([1]; 1 mg (0.4 mL) or 2 mg (0.8 mL)): not anticipated | climax time following treatment (45 seconds prior to treatment) ([1]; treatment groups, 1 mg in 0.4 mL or 2 mg in 0.8 mL, clinician-injected): 4 min | climax time following treatment (45 seconds prior to treatment) ([2]; 0.2 mL bupivacaine): 4 min | intravaginal latency time increase ([2]; 0.2 mL bupivacaine): increases more than two-fold | side-effect profile compared to previous therapies ([2]; 0.2 mL bupivacaine): better side-effect profile compared to previous therapies | climax time following treatment (45 seconds prior to treatment) ([2]; 0.4 mL bupivacaine): 4 min | intravaginal latency time increase ([2]; 0.4 mL bupivacaine): increases more than two-fold | side-effect profile compared to previous therapies ([2]; 0.4 mL bupivacaine): better side-effect profile compared to previous therapies
